Results taken from publication PMC7527053, “Structure of Merkel Cell Polyomavirus Capsid and Interaction with Its Glycosaminoglycan Attachment Receptor” (Journal of Virology, 2020).

What was measured:
[1] = molecular target: T1, MCPyV VLPs (VP1/VP2 virus-like particles) (Merkel cell polyomavirus, UniProt B0G0W3); experiment: STD-NMR; assay type: binding; conditions: 10 uM VLP, 1 mM ligand, 150 mM NaCl, 1 mM CaCl2, D2O, 283 K
T1 construct: untagged icosahedral VLPs of 72 VP1 pentamers; VP1-only VLPs behaved the same; with Minor capsid protein VP2

[2] = molecular target: T2, HPV-16 VLPs (L1- and L2-containing) (Human papillomavirus 16, UniProt P03101); experiment: STD-NMR; assay type: binding; conditions: 10 uM VLP, 1 mM ligand, D2O, 283 K; buffer printed as PBS and as 150 mM NaCl, 20 mM KH2PO4 pH 7.4
T2 construct: L1/L2 VLPs produced by the MCPyV VLP procedure (293TT cells) without the ion chromatography step; plasmids pshell16 and p16L1L2; with Minor capsid protein L2

[3] = molecular target: Merkel cell polyomavirus (MCPyV) major capsid protein VP1, assembled as virus-like particles (Merkel cell polyomavirus (MCC isolate 339)); experiment: crystal structure; filled VLPs (fVLPs), crystals grown in 0.1 M sodium citrate pH 4.6, 30% MPD, 0.2 M NaCl at 20°C; 3.5 Å
[4] = molecular target: Merkel cell polyomavirus (MCPyV) major capsid protein VP1, assembled as virus-like particles (Merkel cell polyomavirus (MCC isolate 339)); experiment: nonreducing SDS-PAGE; purified VLPs incubated with 10 mM DTT and/or 50 mM EDTA with 2% SDS for 1 h at ambient temperature; capsid to pentamers

In the case of `CO[C@H]1O[C@H](COS(=O)(=O)O)[C@@H](O[C@@H]2O[C@@H](C(=O)O)[C@@H](O[C@H]3O[C@H](COS(=O)(=O)O)[C@@H](O[C@@H]4O[C@H](C(=O)O)[C@@H](O[C@H]5O[C@H](COS(=O)(=O)O)[C@@H](O)[C@H](O)[C@H]5NS(=O)(=O)O)[C@H](O)[C@H]4O)[C@H](OS(=O)(=O)O)[C@H]3NS(=O)(=O)O)[C@H](O)[C@H]2OS(=O)(=O)O)[C@H](O)[C@H]1NS(=O)(=O)O` [Arixtra, GlcNS6Sα1-4GlcAα1-4GlcNS3S6Sα1-4IdoA2Sα1-4GlcNS6Sα-OMet], the STD-NMR ([1]; filled (and empty) VLPs) is reported as “we observed STD-NMR signals throughout the full length of the pentasaccharide” and the STD-NMR [2] is reported as “the HPV-16 VLP Arixtra binding epitope is indistinguishable from the MCPyV VLP Arixtra epitope”.
For `O=C(O)C1=C[C@H](O)[C@@H](OS(=O)(=O)O)[C@H](O[C@H]2[C@H](O)[C@@H](NS(=O)(=O)O)C(O)O[C@@H]2COS(=O)(=O)O)O1` (some centres unmarked) [HS-dp2, ΔUA2Sα1-4GlcNS6S], the STD-NMR ([1]; VP1-only and VP1/VP2 VLPs) was “an interaction between MCPyV VLPs and dp2 was unambiguously observed”.
“Merkel cell polyomavirus (MCPyV) major capsid protein VP1, assembled as virus-like particles (natural protein)” showed a stoichiometry N [3] of 360 and a stoichiometry N [4] of 5.
